Measurements: patent EP4635488A1, “PHARMACEUTICAL COMPOSITION FOR PREVENTING OR TREATING BONE DISEASES” (Industry Foundation of Chonnam National University, priority 2022, dated 2024)

system: RANKL-induced BMM; test: In vitro osteoclast formation assay (TRAP staining / TRAP activity); type: cell-based, C57/BL6 mice; parameters: key to Inhibition rate (%): "Inactive" indicates that the % inhibition is less than 30%; conditions: 1 µM; osteoclast differentiation in RANKL-induced BMM; mean ± SD from at least three experiments
Experimental: Bone marrow cells (BMC) were obtained from 8-week-old female C57/BL6 mice by washing femurs and tibias with α-MEM. BMCs were then cultured overnight in full α-MEM containing 10% FBS, 100 U/mL penicillin, and 100 µg/mL streptomycin. Non-attached cells were collected and cultured with M-CSF (30 ng/ mL) for 3 days, and then the attached cells were used as BMM. All animal experiments were approved by Chonnam National University IACUC (approval number: CNU IACUC-YB-2019-49).
To generate osteoclasts, BMMs were harvested and cultured in a complete medium containing 30 ng/mL M-CSF and 50 ng/mL RANKL with or without compounds for approximately 4 days to obtain mature osteoclasts. Differentiated osteoclasts were fixed with 4% formalin for 15 minutes, and then the cells were stained using a TRAP staining kit. The spread of osteoclast areas could be observed under the microscope. The viability of BMM (1 × 10^4 cells/well) was assessed in a 96-well plate using a cell viability assay kit as previously described.

Row | SMILES | Inhibition rate (%)
1 | COc1ccccc1OC(=O)c1cccc(NCC(=O)Nc2ccccc2Sc2ccccc2)c1 [Compound 25-KR-20, 2-Methoxyphenyl 3-((2-oxo-2-((2-(phenylthio)phenyl)amino)ethyl)amino) benzoate] | 52.27±1.11%
2 | COc1ccc(OC(=O)c2cccc(NCC(=O)Nc3ccccc3Sc3ccccc3)c2)cc1 [Compound 25-KR-21, 4-Methoxyphenyl 3-((2-oxo-2-((2-(phenylthio)phenyl)amino)ethyl)amino) benzoate] | 50.91 ± 1.93%
3 | O=C(CNc1cccc(C(=O)Oc2ccc(Cl)cc2)c1)Nc1ccccc1Sc1ccccc1 [Compound 25-KR-25, 4-Chlorophenyl 3-((2-oxo-2-((2-(phenylthio)phenyl)amino)ethyl)amino) benzoate] | 43.18 ± 2.32%

same assay, conditions: 2 µM; osteoclast differentiation in RANKL-induced BMM; mean ± SD from at least three experiments

Row | SMILES | Inhibition rate (%)
4 | COC(=O)c1cccc(N(CC(=O)Nc2ccccc2Sc2ccccc2)S(C)(=O)=O)c1 [Compound 25-KR-01, Methyl 3-(N-(2-oxo-2-((2-(phenylthio)phenyl)amino)ethyl)methylsulfonamido) benzoate] | Inactive ^c
5 | CS(=O)(=O)N(CC(=O)Nc1ccccc1Sc1ccccc1)c1cccc(C(=O)O)c1 [Compound 25-KR-02, 3-(N-(2-oxo-2-((2-(phenylthio)phenyl)amino)ethyl)methylsulfonamido)benzoic acid] | Inactive ^c
6 | CC(C)(C)c1ccc(OC(=O)c2cccc(N(CC(=O)Nc3ccccc3Sc3ccccc3)S(C)(=O)=O)c2)cc1 [Compound 25-KR-04, 4-(tert-butyl)phenyl 3-(N-(2-oxo-2-((2-(phenylthio)phenyl)amino)ethyl)methylsulfonamido)benzoate] | Inactive ^c
7 | Cc1ccccc1OC(=O)c1cccc(N(CC(=O)Nc2ccccc2Sc2ccccc2)S(C)(=O)=O)c1 [Compound 25-KR-05, o -Tolyl 3-(N -(2-oxo-2-((2-(phenylthio)phenyl)amino)ethyl)methylsulfonamido) benzoate] | Inactive ^c
8 | Cc1cccc(OC(=O)c2cccc(N(CC(=O)Nc3ccccc3Sc3ccccc3)S(C)(=O)=O)c2)c1 [Compound 25-KR-06, m -Tolyl 3-(N-(2-oxo-2-((2-(phenylthio)phenyl)amino)ethyl)methylsulfonamido)benzoate] | Inactive ^c
9 | Cc1ccc(OC(=O)c2cccc(N(CC(=O)Nc3ccccc3Sc3ccccc3)S(C)(=O)=O)c2)cc1 [Compound 25-KR-07, p -Tolyl 3-(N-(2-oxo-2-((2-(phenylthio)phenyl)amino)ethyl)methylsulfonamido) benzoate] | Inactive ^c
10 | CS(=O)(=O)N(CC(=O)Nc1ccccc1Sc1ccccc1)c1cccc(C(=O)Oc2ccccc2C#N)c1 [Compound 25-KR-11, 2-Cyanophenyl 3-(N-(2-oxo-2-((2-(phenylthio)phenyl)amino)ethyl)methylsulfonamido)benzoate] | Inactive ^c
11 | CS(=O)(=O)N(CC(=O)Nc1ccccc1Sc1ccccc1)c1cccc(C(=O)Oc2cccc([N+](=O)[O-])c2)c1 [Compound 25-KR-12, 3-Nitrophenyl 3-(N-(2-oxo-2-((2-(phenylthio)phenyl)amino)ethyl)methylsulfonamido)benzoate] | Inactive ^c
12 | CS(=O)(=O)N(CC(=O)Nc1ccccc1Sc1ccccc1)c1cccc(C(=O)Oc2ccc([N+](=O)[O-])cc2)c1 [Compound 25-KR-13, 4-Nitrophenyl 3-(N-(2-oxo-2-((2-(phenylthio)phenyl)amino)ethyl)methylsulfonamido)benzoate] | Inactive ^c
13 | CS(=O)(=O)N(CC(=O)Nc1ccccc1Sc1ccccc1)c1cccc(C(=O)Oc2cccc3ccccc23)c1 [Compound 25-KR-14, Naphthalen-1-yl 3-(N-(2-oxo-2-((2-(phenylthio)phenyl)amino)ethyl)methylsulfonamido)benzoate] | Inactive ^c
14 | CS(=O)(=O)N(CC(=O)Nc1ccccc1Sc1ccccc1)c1cccc(C(=O)Oc2ccc3ccccc3c2)c1 [Compound 25-KR-15, Naphthalen-2-yl 3-(N-(2-oxo-2-((2-(phenylthio)phenyl)amino)ethyl)methylsulfonamido)benzoate] | Inactive ^c
15 | CC(C)(C)[Si](C)(C)Oc1cccc(N(CC(=O)Nc2ccccc2Sc2ccccc2)S(C)(=O)=O)c1 [Compound 25-KR-16, 2-(N-(3-((tert-butyldimethylsilyl)oxy)phenyl)methylsulfonamido)-N-(2-(phenylthio)phenyl)acetamide] | Inactive ^c
16 | CS(=O)(=O)N(CC(=O)Nc1ccccc1Sc1ccccc1)c1cccc(O)c1 [Compound 25-KR-17, 2-(N-(3-hydroxyphenyl)methylsulfonamido)-N-(2-(phenylthio)phenyl)acetamide] | Inactive ^c
17 | CC(C)(C)[Si](C)(C)Oc1cccc(NCC(=O)Nc2ccccc2Sc2ccccc2)c1 [Compound 25-KR-18, 2-((3-((tert-butyldimethylsilyl)oxy)phenyl)amino)-N-(2-(phenylthio)phenyl)acetamide] | Inactive ^c
18 | O=C(CNc1cccc(O)c1)Nc1ccccc1Sc1ccccc1 [Compound 25-KR-19, 2-((3-Hydroxyphenyl)amino)-N-(2-(phenylthio)phenyl)acetamide] | Inactive ^c

same assay, conditions: Mus musculus; 1 µM; osteoclast differentiation in RANKL-induced BMM; mean ± SD from at least three experiments; read-out: Inhibition rate (%)

Row | SMILES | inhibition at 1 µM
19 | Cc1ccccc1OC(=O)c1cccc(NCC(=O)Nc2ccccc2Sc2ccccc2)c1 [Compound 25-KR-22, o-Tolyl 3-((2-oxo-2-((2-(phenylthio)phenyl)amino)ethyl)amino)benzoate] | 47.7 ± 11.4%
20 | Cc1cccc(OC(=O)c2cccc(NCC(=O)Nc3ccccc3Sc3ccccc3)c2)c1 [Compound 25-KR-23, m-Tolyl 3-((2-oxo-2-((2-(phenylthio)phenyl)amino)ethyl)amino)benzoate] | 46.8 ± 13.4%
21 | Cc1ccc(OC(=O)c2cccc(NCC(=O)Nc3ccccc3Sc3ccccc3)c2)cc1 [Compound 25-KR-24, p-Tolyl 3-((2-oxo-2-((2-(phenylthio)phenyl)amino)ethyl)amino)benzoate] | 36.8 ± 7.82%

same assay, conditions: Mus musculus; 2 µM; osteoclast differentiation in RANKL-induced BMM; mean ± SD from at least three experiments; read-out: Inhibition rate (%)

Row | SMILES | inhibition at 2 µM
22 | NCCCC(O)(P(=O)(O)O)P(=O)(O)O [Alendronate, reference compound] | 41.2 ± 8.68%
23 | COc1ccccc1OC(=O)c1cccc(N(CC(=O)Nc2ccccc2Sc2ccccc2)S(C)(=O)=O)c1 [Compound 25-KR-08, 2-Methoxyphenyl 3-(N-(2-oxo-2-((2-(phenylthio)phenyl)amino)ethyl)methylsulfonamido)benzoate] | 37.6 ± 8.21%
24 | COc1ccc(OC(=O)c2cccc(N(CC(=O)Nc3ccccc3Sc3ccccc3)S(C)(=O)=O)c2)cc1 [Compound 25-KR-09, 4-Methoxyphenyl 3-(N-(2-oxo-2-((2-(phenylthio)phenyl)amino)ethyl)methylsulfonamido)benzoate] | 45.8 ± 3.65%
25 | CS(=O)(=O)N(CC(=O)Nc1ccccc1Sc1ccccc1)c1cccc(C(=O)Oc2ccc(Cl)cc2)c1 [Compound 25-KR-10, 4-Chlorophenyl 3-(N-(2-oxo-2-((2-(phenylthio)phenyl)amino)ethyl)methylsulfonamido)benzoate] | 47.4 ± 9.79%

same assay, conditions: SAR summary in words of Table 2 (2 µM)

Row | SMILES | inhibitory effects on osteoclast formation
26 | COc1ccccc1OC(=O)c1cccc(N(CC(=O)Nc2ccccc2Sc2ccccc2)S(C)(=O)=O)c1 [Compound 25-KR-08, 2-Methoxyphenyl 3-(N-(2-oxo-2-((2-(phenylthio)phenyl)amino)ethyl)methylsulfonamido)benzoate] | moderate inhibitory effects
27 | COc1ccc(OC(=O)c2cccc(N(CC(=O)Nc3ccccc3Sc3ccccc3)S(C)(=O)=O)c2)cc1 [Compound 25-KR-09, 4-Methoxyphenyl 3-(N-(2-oxo-2-((2-(phenylthio)phenyl)amino)ethyl)methylsulfonamido)benzoate] | moderate inhibitory effects
28 | CS(=O)(=O)N(CC(=O)Nc1ccccc1Sc1ccccc1)c1cccc(C(=O)Oc2ccc(Cl)cc2)c1 [Compound 25-KR-10, 4-Chlorophenyl 3-(N-(2-oxo-2-((2-(phenylthio)phenyl)amino)ethyl)methylsulfonamido)benzoate] | moderate inhibitory effects
